Laboratory results as given in PubChem BioAssay (NCI).
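Following 48 hours of exposure in 96-well plates, responses at five concentrations were used to interpolate endpoints linearly. GI50 = concentration required for 50% inhibition of growth. At the TGI there is no net growth.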

How the values were obtained:
Test in all cases: NCI-60 cell line screen, 48 h
[1] = test system: NCI-H226 lung
[2] = test system: SNB-75 CNS
[3] = test system: KM12 colon
[4] = test system: MCF7 breast
[5] = test system: K-562 leukemia
[6] = test system: SK-MEL-5 melanoma
[7] = test system: HS 578T breast
[8] = test system: HCC-2998 colon
[9] = test system: SNB-19 CNS
[10] = test system: HCT-15 colon

Cn1c(N)cc(=O)nc1N
TGI [1]: > 100 µM
TGI [2]: > 100 µM
TGI [3]: > 100 µM
TGI [4]: > 100 µM
TGI [5]: > 100 µM
TGI [6]: > 100 µM
TGI [7]: > 100 µM
TGI [8]: > 100 µM
TGI [9]: > 100 µM
TGI [10]: > 100 µM

O=C(CN1C(=O)c2ccccc2C1=O)NC1(C(=O)O)CCCC1
TGI [1]: > 100 µM
TGI [2]: > 100 µM
TGI [3]: > 100 µM
TGI [4]: > 100 µM
TGI [5]: > 100 µM
TGI [6]: > 100 µM
TGI [7]: > 100 µM
TGI [8]: > 100 µM
TGI [9]: > 100 µM
TGI [10]: > 100 µM

Cn1cnc2nc(Cl)nc(Cl)c21
GI50 [1]: 12.4 µM
TGI [1]: 31.4 µM
GI50 [2]: 2.48 µM
TGI [2]: 13.4 µM
GI50 [3]: 430 nM
TGI [3]: 2.46 µM
GI50 [4]: 335 nM
TGI [4]: 13.2 µM
GI50 [5]: 713 nM
TGI [5]: 94.7 µM
GI50 [6]: 2700 nM
TGI [6]: 10.8 µM
GI50 [7]: 2.28 µM
TGI [7]: 7.53 µM
GI50 [8]: 3.85 µM
TGI [8]: 15.6 µM
GI50 [9]: 5.79 µM
TGI [9]: 57.8 µM
GI50 [10]: 2580 nM
TGI [10]: 20.7 µM

CC(=O)OC1C(OC/C2=C/C3[C@@H](C(C)C)CC=C(C)[C@@H]3CC(OC(=O)/C=C/c3cn(C)cn3)[C@]3(C)C=C[C@@]2(O)O3)OCC(O)C1O (stereo partly specified)
TGI [1]: > 50 µM
GI50 [2]: 0.00575 µM
TGI [2]: 0.0319 µM
GI50 [3]: 12.3 nM
GI50 [4]: 14.6 nM
TGI [4]: > 50 µM
GI50 [5]: 15.7 nM
TGI [5]: > 50 µM
GI50 [6]: 16.5 nM
GI50 [7]: 0.00831 µM
TGI [7]: 0.035 µM
GI50 [8]: 0.0134 µM
TGI [8]: 0.0658 µM
GI50 [9]: 0.0364 µM
TGI [9]: > 50 µM
GI50 [10]: 1200 nM
TGI [10]: > 50 µM

COc1cc2c(cc1Nc1nc(Nc3ccsc3C(N)=O)c3cc[nH]c3n1)N(C(=O)CN(C)C)CCC2
GI50 [1]: 1.12 µM
TGI [1]: 7.18 µM
GI50 [2]: 1.49 µM
TGI [2]: 3.92 µM
GI50 [3]: 529 nM
TGI [3]: 2.66 µM
GI50 [4]: 3.43 nM
TGI [4]: > 25 µM
GI50 [5]: 875 nM
TGI [5]: 13.7 µM
GI50 [6]: 383 nM
TGI [6]: 3.2 µM
GI50 [7]: 1.14 µM
TGI [7]: 5.42 µM
GI50 [8]: 0.2 µM
TGI [8]: 2.27 µM
GI50 [9]: 2.58 µM
TGI [9]: > 25 µM
GI50 [10]: 1870 nM
TGI [10]: > 25 µM

CCOC(=O)c1ccccc1NC(c1ccccc1)c1ccc2cccnc2c1O (stereo unspecified)
GI50 [1]: 2.69 µM
TGI [1]: 13.9 µM
GI50 [2]: 2.6 µM
TGI [2]: 89.8 µM
GI50 [3]: 3990 nM
TGI [3]: > 100 µM
GI50 [4]: 2980 nM
TGI [4]: 45 µM
GI50 [5]: 3340 nM
TGI [5]: > 100 µM
GI50 [6]: 2040 nM
TGI [6]: 6.74 µM
GI50 [7]: 7.53 µM
TGI [7]: > 100 µM
GI50 [8]: 5.77 µM
TGI [8]: > 100 µM
GI50 [9]: 2.83 µM
TGI [9]: > 100 µM
GI50 [10]: 2110 nM
TGI [10]: 23.5 µM

COc1ccc(C2CC(c3cccc(Nc4ccnc5cc(Cl)ccc45)c3)=NN2c2ccc(Cl)cc2)cc1 (stereo unspecified)
GI50 [1]: 14.2 µM
TGI [1]: 94.8 µM
GI50 [2]: 12.5 µM
TGI [2]: 97.9 µM
GI50 [3]: 713 nM
TGI [3]: 23.9 µM
GI50 [4]: 3450 nM
TGI [4]: 44.3 µM
GI50 [5]: 2750 nM
TGI [5]: > 100 µM
GI50 [6]: 3010 nM
TGI [6]: 10.2 µM
GI50 [7]: 14.7 µM
TGI [7]: > 100 µM
GI50 [8]: 3.41 µM
TGI [8]: 15.1 µM
GI50 [9]: 15.9 µM
TGI [9]: > 100 µM
GI50 [10]: 2300 nM
TGI [10]: 18.7 µM

CN(C)c1ccc(/C=C/C(=O)c2ccc(Nc3nc(Nc4ccc(F)cc4)nc(Nc4ccc(Cl)cc4)n3)cc2)cc1
GI50 [1]: 15.6 µM
TGI [1]: > 100 µM
GI50 [2]: 9 µM
TGI [2]: 38.9 µM
GI50 [3]: 5750 nM
TGI [3]: 23.2 µM
GI50 [4]: 2610 nM
TGI [4]: 21.5 µM
GI50 [5]: 2770 nM
TGI [5]: > 100 µM
GI50 [6]: 2000 nM
TGI [6]: 10.9 µM
GI50 [7]: 4.12 µM
TGI [7]: 49.6 µM
GI50 [8]: 15.4 µM
TGI [8]: > 100 µM
GI50 [9]: 17.1 µM
TGI [9]: > 100 µM
GI50 [10]: 4660 nM
TGI [10]: > 100 µM

COc1c(C)cnc(Cn2cnc3c(Cl)nc(N)nc32)c1C
GI50 [1]: 0.594 µM
TGI [1]: > 100 µM
GI50 [2]: 3.13 µM
TGI [2]: > 100 µM
GI50 [3]: 85.4 nM
GI50 [4]: 40.2 nM
TGI [4]: > 100 µM
GI50 [5]: 187 nM
TGI [5]: > 100 µM
GI50 [6]: 557 nM
TGI [6]: 15.9 µM
GI50 [7]: 3.53 µM
TGI [7]: > 100 µM
GI50 [8]: 0.457 µM
TGI [8]: 10.7 µM
GI50 [9]: 0.48 µM
TGI [9]: > 100 µM
GI50 [10]: 107 nM
TGI [10]: 26.7 µM

C=CC(=O)N1CC[C@@H](Oc2nc(Nc3ccc(N4CCC(N5CCN(C)CC5)CC4)cc3)c(C(N)=O)nc2CC)C1
GI50 [1]: > 100 µM
TGI [1]: > 100 µM
GI50 [2]: > 100 µM
TGI [2]: > 100 µM
GI50 [3]: > 100000 nM
TGI [3]: > 100 µM
GI50 [4]: > 100000 nM
TGI [4]: > 100 µM
GI50 [5]: > 100000 nM
TGI [5]: > 100 µM
GI50 [6]: > 100000 nM
TGI [6]: > 100 µM
GI50 [7]: > 100 µM
TGI [7]: > 100 µM
GI50 [8]: > 100 µM
TGI [8]: > 100 µM
GI50 [9]: > 100 µM
TGI [9]: > 100 µM
GI50 [10]: > 100000 nM
TGI [10]: > 100 µM

COC(=O)c1cc2c([nH]c3ccccc32)c(-c2nc3cc(N(S(=O)(=O)c4ccc(C)cc4)S(=O)(=O)c4ccc(C)cc4)c(OC)cc3cc2CO)n1
GI50 [1]: > 100 µM
TGI [1]: > 100 µM
GI50 [2]: 33.5 µM
TGI [2]: 98.7 µM
GI50 [3]: > 100000 nM
TGI [3]: > 100 µM
GI50 [4]: > 100000 nM
TGI [4]: > 100 µM
GI50 [5]: > 100000 nM
TGI [5]: > 100 µM
GI50 [6]: > 100000 nM
TGI [6]: > 100 µM
GI50 [7]: 30.6 µM
TGI [7]: > 100 µM
GI50 [8]: > 100 µM
TGI [8]: > 100 µM
GI50 [9]: 75 µM
TGI [9]: > 100 µM
GI50 [10]: > 100000 nM
TGI [10]: > 100 µM
